These compounds were tested against Recombinant human HSD17B13 (Homo sapiens (Human), UniProt Q7Z5P4) (assay: HSD17B13 rapid-fire mass spectrometry assay (RF/MS assay)). Details: inhibition of HSD17B13; LTB4 10 μM, NAD+ 0.5 mM, RT 3 h; IC50 ranges A-E.
Recombinant human HSD17B13, sequence (Q7Z5P4 20-300): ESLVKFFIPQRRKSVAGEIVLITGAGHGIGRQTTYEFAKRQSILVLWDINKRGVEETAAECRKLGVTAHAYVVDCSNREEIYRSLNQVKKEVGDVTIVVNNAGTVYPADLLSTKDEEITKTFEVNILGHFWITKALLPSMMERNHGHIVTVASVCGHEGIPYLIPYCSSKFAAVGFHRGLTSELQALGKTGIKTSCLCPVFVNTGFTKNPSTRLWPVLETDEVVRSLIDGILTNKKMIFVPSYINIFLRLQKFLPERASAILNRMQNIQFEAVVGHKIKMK
Type: biochemical
How it was run: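 Sf9-expressed human HSD17B13 (80 nM) with 10 μM LTB4 and 0.5 mM NAD+, incubated with compound (0–100 μM) for 3 h at RT in Tris pH 7.5/BSA/Tween-20. After formic acid quench, LTB4 conversion to 12-oxo-LTB4 measured by RapidFire MS/MS. IC50 from normalised residual activity, duplicates.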
`COc1cc(C(=O)O)ccc1NS(=O)(=O)c1csc(-c2ccc3cc(C4=CCC(C)(C)CC4)ccc3c2)n1` [Example 459, 4-((2-(6-(4,4-dimethylcyclohex-1-en-1-yl)naphthalen-2-yl)thiazole)-4-sulfonamido)-3-methoxybenzoic acid] was tested, and the IC50 was 500 to 1000 nM. For `COc1cc(C(=O)O)ccc1NS(=O)(=O)N1Cc2nc(-c3ccc([C@H]4CC[C@H](C(F)(F)F)CC4)cc3)sc2C1` [Example 460], the IC50 was 1000 to 100000 nM. Compound `COc1cc(C(=O)O)ccc1NS(=O)(=O)c1csc(-c2ccc3c(c2)OCCO3)n1` [Example 462] has an IC50 of 100 to 500 nM. Work on `COc1cc(C(=O)O)ccc1NS(=O)(=O)c1cccc(C#Cc2cccc(OC(F)(F)F)c2)n1` [Example 463, 3-methoxy-4-((6-((3-(trifluoromethoxy)phenyl)ethynyl)pyridine)-2-sulfonamido)benzoic acid] yielded an IC50 of 100 to 500 nM. Work on `COc1cc(C(=O)O)ccc1NS(=O)(=O)c1coc(-c2ccc(C3=CCC(C)(C)CC3)cc2)n1` [Example 464] yielded an IC50 of 100 to 500 nM. `COc1cc(C(=O)O)ccc1NS(=O)(=O)c1coc(-c2ccc(C(C)(C)C)cc2)n1` [Example 465] showed an IC50 of 100 to 500 nM. `COc1cc(C(=O)O)ccc1NS(=O)(=O)c1coc(-c2ccc(C(C)C)cc2)n1` [Example 466, 4-((2-(4-isopropylphenyl)oxazole)-4-sulfonamido)-3-methoxybenzoic acid] was tested, and the IC50 was less than 100 nM. In the case of `COc1cc(C(=O)O)ccc1NS(=O)(=O)c1coc(-c2ccc(C3CCC(C(F)(F)F)CC3)cc2)n1` (stereo not shown) [Example 468], the IC50 is reported as less than 100 nM. `CCCCC[C@H]1CC[C@H](c2ccc(-c3cccc(S(=O)(=O)Nc4ccc(C(=O)O)cc4OC)c3F)cc2)CC1` [Example 470] gave an IC50 of 100 to 500 nM. In the case of `COc1cc(C(=O)O)ccc1NS(=O)(=O)c1cccc(-c2ccc(C3=CCC(C(F)(F)F)CC3)cc2)c1F` (stereo not shown) [Example 471], the IC50 is reported as 100 to 500 nM. Work on `COc1cc(C(=O)O)ccc1NS(=O)(=O)c1cccc(-c2ccc(C3CCCCC3)cc2)c1` [Example 472] yielded an IC50 of 100 to 500 nM. Work on `COc1cc(C(=O)O)ccc1NS(=O)(=O)c1cccc(-c2ccc(C3CCC(C)(C)CC3)cc2)c1F` [Example 473] yielded an IC50 of 100 to 500 nM. For `COc1cc(C(=O)O)ccc1NS(=O)(=O)c1cccc(-c2ccc([C@H]3CC[C@@H](C(F)(F)F)CC3)cc2)c1F` [Example 474, 4-((2-fluoro-4′-((1s,4s)-4-(trifluoromethyl)cyclohexyl)-[1,1′-biphenyl])-3-sulfonamido)-3-methoxybenzoic acid], the IC50 was 100 to 500 nM. `COc1cc(C(=O)O)ccc1NS(=O)(=O)c1cccc(-c2ccc([C@H]3CC[C@H](C(F)(F)F)CC3)cc2)c1F` [Example 475, 4-((2-fluoro-4′-((1r,4r)-4-(trifluoromethyl)cyclohexyl)-[1,1′-biphenyl])-3-sulfonamido)-3-methoxybenzoic acid] showed an IC50 of less than 100 nM. Compound `COc1cc(C(=O)O)ccc1NS(=O)(=O)c1cccc(-c2ccc(C3CCC(F)(F)CC3)cc2)c1F` [Example 476] has an IC50 of 100 to 500 nM. Work on `COc1cc(C(=O)O)ccc1NS(=O)(=O)c1cccc(-c2ccc(C3=CCC(C(C)(C)C)CC3)cc2)c1F` (stereo not shown) [Example 477, 4-((4″-(tert-butyl)-2-fluoro-2″,3″,4″,5″-tetrahydro-[1,1′:4′,1″-terphenyl])-3-sulfonamido)-3-methoxybenzoic acid] yielded an IC50 of 100 to 500 nM. Work on `COc1cc(C(=O)O)ccc1NS(=O)(=O)c1cccc(-c2ccc([C@H]3CC[C@H](C(C)(C)C)CC3)cc2)c1F` [Example 478, 4-((4′-((1r,4r)-4-(tert-butyl)cyclohexyl)-2-fluoro-[1,1′-biphenyl])-3-sulfonamido)-3-methoxybenzoic acid] yielded an IC50 of 100 to 500 nM. Work on `COc1cc(C(=O)O)ccc1NS(=O)(=O)c1cccc(-c2ccc([C@H]3CC[C@@H](C(C)(C)C)CC3)cc2)c1F` [Example 479, 4-((4′-((1s,4s)-4-(tert-butyl)cyclohexyl)-2-fluoro-[1,1′-biphenyl])-3-sulfonamido)-3-methoxybenzoic acid] yielded an IC50 of 100 to 500 nM. For `CC[C@H]1CC[C@@H](c2ccc(-c3nc(S(=O)(=O)Nc4ccc(C(=O)O)cc4OC)co3)cc2)CC1` [Example 481], the IC50 was 100 to 500 nM. `COc1cc(C(=O)O)c(F)cc1NS(=O)(=O)c1coc(-c2ccc(C3=CCC(C)(C)CC3)cc2)n1` [Example 482] showed an IC50 of less than 100 nM. In the case of `COc1cc(C(=O)O)c(F)cc1NS(=O)(=O)c1coc(-c2ccc(C3=CCC(C(F)(F)F)CC3)cc2)n1` (stereo not shown) [Example 483], the IC50 is reported as less than 100 nM. Work on `COc1cc(P(=O)(O)O)ccc1NS(=O)(=O)c1csc(-c2ccc(C3CCCCC3)cc2)n1` [Example 484, (4-((2-(4-cyclohexylphenyl)thiazole)-4-sulfonamido)-3-methoxyphenyl)phosphonic acid] yielded an IC50 of 1000 to 100000 nM. For `COc1cc(C(=O)O)ccc1NS(=O)(=O)c1csc(-c2ccc(C#CC3CCCCC3)cc2)n1` [Example 485], the IC50 was 100 to 500 nM. For `COc1cc(C(=O)O)ccc1NS(=O)(=O)c1csc(-c2ccc(C#Cc3ccc(F)cc3)cc2)n1` [Example 486], the IC50 was 500 to 1000 nM. `CCC1CC=C(c2ccc(-c3nc(S(=O)(=O)Nc4ccc(C(=O)O)cc4OC)co3)cc2)CC1` (stereo not shown) [Example 487] was tested, and the IC50 was 100 to 500 nM. Work on `CC[C@H]1CC[C@H](c2ccc(-c3nc(S(=O)(=O)Nc4ccc(C(=O)O)cc4OC)co3)cc2)CC1` [Example 488] yielded an IC50 of 100 to 500 nM. Compound `CC[C@H]1CC[C@@H](c2ccc(-c3nc(S(=O)(=O)Nc4ccc(C(=O)O)cc4OC)co3)cc2)CC1` [Example 489] has an IC50 of 100 to 500 nM. `COc1cc(C(=O)O)c(F)cc1NS(=O)(=O)c1coc(-c2ccc([C@H]3CC[C@H](C(F)(F)F)CC3)cc2)n1` [Example 492] gave an IC50 of less than 100 nM. For `COc1cc(C(=O)O)c(F)cc1NS(=O)(=O)c1coc(-c2ccc([C@H]3CC[C@@H](C(F)(F)F)CC3)cc2)n1` [Example 493], the IC50 was less than 100 nM. Compound `CCC1CC=C(c2ccc(-c3nc(S(=O)(=O)Nc4cc(F)c(C(=O)O)cc4OC)co3)cc2)CC1` (stereo not shown) [Example 494] has an IC50 of less than 100 nM. `CC[C@H]1CC[C@H](c2ccc(-c3nc(S(=O)(=O)Nc4cc(F)c(C(=O)O)cc4OC)co3)cc2)CC1` [Example 495] gave an IC50 of less than 100 nM. Compound `COc1cc(C(=O)O)c(F)cc1NS(=O)(=O)c1coc(-c2ccc(C3CCC(C)(C)CC3)cc2)n1` [Example 496] has an IC50 of less than 100 nM. In the case of `COc1cc(C(=O)O)c(F)cc1NS(=O)(=O)c1coc(-c2ccc(C3CCCCC3)cc2)n1` [Example 497], the IC50 is reported as 100 to 500 nM. Compound `COc1cc(C(=O)O)c(F)cc1NS(=O)(=O)c1cccc(-c2ccc(C3=CCC(C(C)(C)C)CC3)cc2)c1F` (stereo not shown) [Example 498] has an IC50 of less than 100 nM. With `COc1cc(C(=O)O)c(F)cc1NS(=O)(=O)c1cccc(-c2ccc(C3=CC[C@H](C(C)(C)C)CC3)cc2)c1F` [Example 499] the IC50 was less than 100 nM. `COc1cc(C(=O)O)c(F)cc1NS(=O)(=O)c1cccc(-c2ccc([C@H]3CC[C@@H](C(C)(C)C)CC3)cc2)c1F` [Example 500] was tested, and the IC50 was less than 100 nM. Work on `CC[C@H]1CC[C@H](c2ccc(-c3cccc(S(=O)(=O)Nc4cc(F)c(C(=O)O)cc4OC)c3F)cc2)CC1` [Example 501] yielded an IC50 of less than 100 nM. `COc1cc(C(=O)O)ccc1NS(=O)(=O)c1csc(-c2ccc(C3CCC(OC)CC3)cc2)n1` (stereo not shown) [Example 503] was tested, and the IC50 was 100 to 500 nM. For `CCC[C@H]1CC[C@H](C2CCC(c3nc(S(=O)(=O)Nc4ccc(C(=O)O)cc4OC)cs3)CC2)CC1` (stereo partly shown) [Example 504], the IC50 was 100 to 500 nM. `COc1c(NS(=O)(=O)c2csc(-c3ccc(C4CCC(C)(C)CC4)cc3)n2)ccc(C(=O)O)c1F` [Example 505] showed an IC50 of 100 to 500 nM. `COc1cc(C(=O)O)ccc1NS(=O)(=O)c1csc(-c2ccc([C@H]3CC[C@H](C(F)(F)F)CC3)cc2)n1` [Example 506] was tested, and the IC50 was less than 100 nM. `COc1cc(C(=O)O)ccc1NS(=O)(=O)c1csc(-c2ccc(C34CC5CC(CC(C5)C3)C4)cc2)n1` [Example 507] gave an IC50 of 100 to 500 nM. Compound `CCCCC[C@H]1CC[C@H](c2ccc(-c3nc(S(=O)(=O)Nc4ccc(C(=O)O)cc4OC)cs3)cc2)CC1` [Example 508] has an IC50 of less than 100 nM. For `COc1cc(C(=O)O)c(F)cc1NS(=O)(=O)c1csc(-c2ccc([C@H]3CC[C@H](C(F)(F)F)CC3)cc2)n1` [Example 509], the IC50 was less than 100 nM. `COc1cc(C(=O)O)c(F)cc1NS(=O)(=O)c1csc(-c2ccc(C3=CCC(C)(C)CC3)cc2F)n1` [Example 510] gave an IC50 of less than 100 nM. For `COc1cc(C(=O)O)c(F)cc1NS(=O)(=O)c1csc(-c2ccc(C3CCC(C)(C)CC3)cc2F)n1` [Example 511], the IC50 was less than 100 nM. `COc1cc(C(=O)O)c(F)cc1NS(=O)(=O)c1csc(-c2ccc(C3=CCC(C)(C)CC3)c(F)c2)n1` [Example 512] gave an IC50 of less than 100 nM. In the case of `COc1cc(C(=O)O)c(F)cc1NS(=O)(=O)c1csc(-c2ccc(C3CCC(C)(C)CC3)c(F)c2)n1` [Example 513], the IC50 is reported as less than 100 nM. `COc1cc(C(=O)O)c(F)cc1NS(=O)(=O)c1csc(C#CC2CCC(C)(C)CC2)n1` [Example 514] gave an IC50 of less than 100 nM. For `COc1cc(C(=O)O)c(F)cc1NS(=O)(=O)c1csc(-c2ccc(C3=CCC(C)(C)CC3)c(C(F)(F)F)c2)n1` [Example 515], the IC50 was less than 100 nM. Compound `COc1cc(C(=O)O)c(F)cc1NS(=O)(=O)c1csc(-c2cc(F)c(C3=CCC(C)(C)CC3)c(F)c2)n1` [Example 516] has an IC50 of 100 to 500 nM. For `COc1cc(C(=O)O)c(F)cc1NS(=O)(=O)c1csc(-c2cc(F)c(C3CCC(C)(C)CC3)c(F)c2)n1` [Example 517], the IC50 was 100 to 500 nM. `COc1cc(C(=O)O)c(F)cc1NS(=O)(=O)c1csc(-c2cc(F)c(C3=CCC(C)(C)CC3)cc2F)n1` [Example 518] was tested, and the IC50 was 100 to 500 nM. In the case of `COc1cc(C(=O)O)c(F)cc1NS(=O)(=O)c1csc(-c2cc(F)c(C3CCC(C)(C)CC3)cc2F)n1` [Example 519], the IC50 is reported as 100 to 500 nM. Compound `COc1cc(C(=O)O)c(F)cc1NS(=O)(=O)c1csc(-c2ccc(C3=CCC(C)(C)CC3)c(F)c2F)n1` [Example 520] has an IC50 of 100 to 500 nM. `COc1cc(C(=O)O)c(F)cc1NS(=O)(=O)c1csc(-c2ccc(C3CCC(C)(C)CC3)c(F)c2F)n1` [Example 521] gave an IC50 of 100 to 500 nM. `COc1cc(C(=O)O)c(F)cc1NS(=O)(=O)c1csc(-c2ccc(C3=CCC(C)(C)CC3)cc2C(F)(F)F)n1` [Example 522] was tested, and the IC50 was less than 100 nM. `COc1cc(C(=O)O)c(F)cc1NS(=O)(=O)c1csc(-c2ccc(C3=CCC(C)(C)CC3)c(OC)c2)n1` [Example 523] showed an IC50 of less than 100 nM.
